Test results: patent US20230321288A1, “RIBOFLAVIN PHOTOCHEMICAL TREATMENT (RPT)-BASED INACTIVATION METHOD OF PATHOGENS IN BIOLOGICAL LIQUID SAMPLE” (INSTITUTE OF BLOOD TRANSFUSION CHINESE ACADEMY OF MEDICAL …, priority 2020, published 2023)

How the values were obtained:
[1] = test system: E. coli; assay: RPT-based inactivation of E. coli in plasma, growth detected by Reed-Muench method (Example 1); assay type: cell-based, Escherichia coli; details: 50 μM riboflavin, 15 min, 1 W
Experimental: In this example, the plasma of healthy blood donors containing 50 μM of riboflavin was irradiated with LED lamp beads in a series of wavelength ranges for 15 min at an irradiation intensity of 1 W. The growth of E. coli in the blood products was then detected by a Reed-Muench method.

[2] = test system: Staphylococcus aureus; assay: RPT-based inactivation of Staphylococcus aureus in apheresis platelets, growth detected by Reed-Muench method (Example 2); assay type: cell-based; details: 50 μM riboflavin, 30 min
Experimental: (§1) In this example, the apheresis platelets containing 50 μM of riboflavin were separately irradiated with LED lamp beads with a wavelength of 395 nm±5 nm and fluorescent tubes with a wavelength of 309 nm to 313 nm for 30 min at irradiation intensities of 1 W (395 nm f 5 nm) and 9 W (309 nm to 313 nm), respectively. The growth of Staphylococcus aureus in the blood products was then detected by a Reed-Muench method.

[3] = test system: apheresis platelets; assay: Quality of platelet preservation after RPT (Example 2, Table 1); assay type: cell-based; details: for K^+ / MPV / Na^+ / PH: platelets, 50 μM riboflavin, 30 min
Experimental: as §1
The properties and component contents of the platelet samples in the three groups of experiments were compared, and the results were as follows: […]

With Cc1cc2nc3c(=O)[nH]c(=O)nc-3n(C[C@H](O)[C@H](O)[C@H](O)CO)c2cc1C [riboflavin] as the molecule, how does the “pathogen inactivation effect on E. coli” value ([1]; LED 365 nm ± 5 nm) read?
The value was “desirable pathogen inactivation effect”.

And the “pathogen inactivation effect on E. coli” value ([1]; LED 395 nm±5 nm)?
The value was “desirable pathogen inactivation effect”.

What about the “inactivation of S. aureus” value ([2]; 309 nm to 313 nm fluorescent tubes, 9 W) of the same molecule?
The value was “could inactivate the S. aureus”.

What about the “inactivation effect on S. aureus compared with 309 nm to 313 nm fluorescent tubes” value ([2]; 395 nm±5 nm LED) of the same molecule?
The value was “better”.

What about the “inactivation of S. aureus” value ([2]; 395 nm±5 nm LED, 1 W) of the same molecule?
The value was “could inactivate the S. aureus”.

And the “damage to the platelet samples” value [3]?
The value was “significantly less damage”.

And the “K^+” value ([3]; 309 nm to 313 nm, 9 W)?
The value was 3 mmol/L.

And the MPV ([3]; 309 nm to 313 nm, 9 W)?
The MPV was 12.1.

What about the “Na^+” value ([3]; 309 nm to 313 nm, 9 W) of the same molecule?
The value was 151 mmol/L.

What about the PH ([3]; 309 nm to 313 nm, 9 W) of the same molecule?
The PH was 7.26.

And the “K^+” value ([3]; 395 nm ± 5 nm, 1 W)?
Its value is 2.7 ± 0^ mmol/L.

What about the MPV ([3]; 395 nm ± 5 nm, 1 W) of the same molecule?
The MPV was 9.5 ± 0^.

What about the “Na^+” value ([3]; 395 nm ± 5 nm, 1 W) of the same molecule?
The value was 153.6 ± 0.49 mmol/L.

And the PH ([3]; 395 nm ± 5 nm, 1 W)?
The PH was 7.45 ± 0.01.
